Patent publication US7727986B2, “Pesticide pyrimidinyloxy substituted phenylamidine derivatives” (Bayer CropScience AG, priority 2005, dated 2010)

Columns and labels:
[1] = logP by HPLC on reversed-phase column (C 18), EEC Directive 79/831 Annex V.A8; format: physicochemical; settings: pH 2.3; for logPa: HPLC, 0.1% aqueous formic acid and acetonitrile, 40° C.
Protocol: Temperature: 40° C.; Mobile phases: 0.1% aqueous formic acid and acetonitrile; linear gradient from 10% acetonitrile to 90% acetonitrile.

Phaedon cochleariae = test: In vivo protective test on Phaedon cochleariae (PHAECO); settings: Chinese cabbage leaf-disks sprayed, infested with mustard beetle larvae; concentration not given
Protocol: In vivo Protective Test on Phaedon cochleariae (PHAECO)
(§1) To produce a suitable preparation of active compound, 1 part by weight of active compound is mixed with the stated amount of solvent and emulsifier, and the concentrate is diluted with emulsifier-containing water to the desired concentration.
Chinese cabbage (Brassica pekinesis) leaf-disks are sprayed with a preparation of the active ingredient of the desired concentration. Once dry, the leaf disks are infested with mustard beetle larvae (Phaedon cochleariae).
After the specified period of time, mortality in % is determined. 100% means that all beetle larvae have been killed and 0% means that none of the beetle larvae have been killed.

Myzus persicae = test: In vivo protective test on Myzus persicae (MYZUPE); settings: Chinese cabbage leaf-disks infected with green peach aphid, sprayed; concentration not given
Protocol: In vivo Protective Test on Myzus persicae (MYZUPE)
as §1
Chinese cabbage (Brassica pekinesis) leaf-disks infected with all instars of the green peach aphid (Myzus persicae), are sprayed with a preparation of the active ingredient at the desired concentration.
After the specified period of time, mortality in % is determined. 100% means that all aphids have been killed; 0% means that none of the aphids have been killed.

Tetranychus urticae = test: In vivo protective test on Tetranychus urticae (TETRUR); settings: French bean infested with two spotted spidermite, sprayed; concentration not given
Protocol: In vivo Protective Test on Tetranychus urticae (TETRUR)
as §1
French bean (Phaseolus vulgaris) which are heavily infested with all stages of the two spotted spidermite (Tetranychus urticae), are sprayed with a preparation of the active ingredient at the desired concentration.
After the specified period of time, mortality in % is determined. 100% means that all spider mites have been killed and 0% means that none of the spider mites have been killed.

CCCN(C)C=Nc1cc(C)c(Oc2ccnc(Oc3cccc(Cl)c3C)n2)cc1C [Compound 18]
logPa [1]: 2.21 | activity (mortality) (Phaedon cochleariae): good activity

CCCN(C)C=Nc1cc(C)c(Oc2ccnc(Oc3ccccc3)n2)cc1C [Compound 36]
activity (mortality) (Myzus persicae): good activity | logPa [1]: 1.87

CCN(C)C=Nc1cc(C)c(Oc2ccnc(N(C)C)n2)cc1C [Compound 37]
logPa [1]: 0.66 | activity (mortality) (Tetranychus urticae): good activity

Cc1cc(Oc2cc(C)c(N=CN(C)C(C)C)cc2C)nc(Cl)n1 [Compound 41]
activity (mortality) (Myzus persicae): good activity | logPa [1]: 1.57

CCN(C)C=Nc1cc(C)c(Oc2ccnc(Oc3cccc(Cl)c3)n2)cc1C [Compound 65]
activity (mortality) (Myzus persicae): good activity | logPa [1]: 2.04

CCN(C)c1nc(Oc2cc(C)c(N=CN(C)C(C)C)cc2C)ncc1Cl [Compound 99]
logPa [1]: 1.98

CCCN(C)C=Nc1cc(C)c(Oc2ncc(Cl)c(N(C)CC)n2)cc1C [Compound 100]
logPa [1]: 1.95

CCN(C)c1nc(Oc2cc(C)c(N=CN3CCCCC3)cc2C)ncc1Cl [Compound 101]
logPa [1]: 1.93

CCN(C)C=Nc1cc(C)c(Oc2nccc(Oc3ccccc3)n2)cc1C [Compound 102]
logPa [1]: 1.82

CCN(C)C=Nc1cc(C)c(Oc2nccc(Oc3cccc(Cl)c3)n2)cc1C [Compound 103]
logPa [1]: 2.13

Cc1cc(Oc2ccnc(N(C)c3ccccc3)n2)c(C)cc1N [[4-(4-Amino-2,5-dimethyl-phenoxy)-pyrimidin-2-yl]-methyl-phenyl-amine]
chromatographic logP ([1]; reversed-phase C18 HPLC column, value in preparation example text, read-out: log P (pH 2.3)): 1.72
